Legend:
DYRK1B = conditions: Target DYRK1B; NCGC compounds; cited from earlier work
[1] = biological target: DYRK and CLK family kinases; conditions: cited from earlier work
[2] = test system: endogenous NKX3.1 in LNCaP cells; assay: Endogenous NKX3.1 half-life in LNCaP cells exposed to cycloheximide, immunoblot; assay type: cell-based, human

Row | Effect on NKX3.1 half-life / degradation (in words) [2] | SMILES | IC50 (DYRK1B) [nM] | Kinase specificity (in words) [1]
1 | – | c1coc(CCNc2ncnc3ccc(-c4ccc5c(c4)OCO5)cc23)c1 [NCGC00185976] | 103 | –
2 | – | Cc1nc(CNc2ncnc3ccc(-c4ccc5c(c4)OCO5)cc23)cs1 [NCGC00185963] | 1510 | –
3 | – | CN(Cc1cccs1)c1ncnc2ccc(-c3ccc4c(c3)OCO4)cc12 [NCGC00185984] | 72 | no specificity for CLK kinases
4 | most active compound | Cc1nc(CN(C)c2ncnc3ccc(-c4ccc5c(c4)OCO5)cc23)cs1 [NCGC00185981] | 25 | specificity against both DYRK and CLK family kinases
